Laboratory results: patent publication US11040981B2, “Pyrrolotriazine compounds and methods of inhibiting TAM kinases” (Syros Pharmaceuticals, Inc., priority 2017, dated 2021)
Structures can show the parent of a compound that is named as a salt.

Key:
Format in all cases: biochemical
[1] = biological target: T1, FLT3 (Homo sapiens, UniProt P36888); assay: TR-FRET kinase activity assay, FLT3; conditions: ATP at Km, 60 minutes
T1 sequence (P36888 27-993): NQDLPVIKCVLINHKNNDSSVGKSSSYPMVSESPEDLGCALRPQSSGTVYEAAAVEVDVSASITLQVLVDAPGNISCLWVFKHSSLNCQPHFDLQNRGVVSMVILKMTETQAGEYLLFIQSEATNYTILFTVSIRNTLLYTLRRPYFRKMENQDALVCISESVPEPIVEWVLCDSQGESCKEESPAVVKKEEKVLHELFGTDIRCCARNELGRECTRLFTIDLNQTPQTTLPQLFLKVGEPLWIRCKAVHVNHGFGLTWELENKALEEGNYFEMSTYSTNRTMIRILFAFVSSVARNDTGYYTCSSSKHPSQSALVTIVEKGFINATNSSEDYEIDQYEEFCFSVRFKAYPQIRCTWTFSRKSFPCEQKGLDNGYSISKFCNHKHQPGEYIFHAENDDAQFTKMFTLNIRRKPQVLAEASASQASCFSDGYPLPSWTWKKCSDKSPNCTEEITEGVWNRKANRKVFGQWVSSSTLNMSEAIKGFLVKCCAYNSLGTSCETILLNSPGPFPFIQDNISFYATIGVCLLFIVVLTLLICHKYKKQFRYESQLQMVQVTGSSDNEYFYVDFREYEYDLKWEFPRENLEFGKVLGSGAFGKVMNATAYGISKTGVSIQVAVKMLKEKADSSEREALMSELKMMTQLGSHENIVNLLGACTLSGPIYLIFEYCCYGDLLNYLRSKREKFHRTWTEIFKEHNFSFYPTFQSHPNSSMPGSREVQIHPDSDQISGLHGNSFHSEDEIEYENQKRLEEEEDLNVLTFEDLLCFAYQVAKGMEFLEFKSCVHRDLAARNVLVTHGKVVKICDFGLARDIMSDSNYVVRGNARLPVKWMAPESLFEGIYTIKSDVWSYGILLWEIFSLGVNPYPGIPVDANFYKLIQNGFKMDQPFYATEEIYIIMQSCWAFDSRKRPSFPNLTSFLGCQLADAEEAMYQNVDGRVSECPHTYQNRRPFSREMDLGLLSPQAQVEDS
Protocol: (§1) IC50 values for compound inhibition of AXL, FLT3, MERTK and TYRO3 activity were determined by using a TR-FRET activity assay. A polypeptide substrate with a fluorescent label is phosphorylated on a tyrosine by each enzyme, where the now phosphorylated product is bound by a Europium-labeled antibody specific to that phosphorylation site. The proximity between the antibody and the substrate gives a signal known as TR-FRET. As the enzyme is inhibited by compound, less phosphorylated peptide product is made causing a decrease in overall signal.
(§2) Activity assays were performed in a 384-well, small volume, black microplates in an active enzyme volume of 10 μL and final developed volume of 20 μL. Final assay conditions are 50 mM HEPES pH 7.5, 10 mM MgCl2, 1 mM EGTA, 0.01% Brij 35 and 1 mM DTT all at RT. Enzyme, substrate labeled peptide and compound are mixed, and then the reaction is initiated with the addition of ATP at Km concentration for each enzyme. The reaction is allowed to run 60 minutes and then quenched with a 12.5 mM EDTA (ethylenediamine tetraacetic acid) solution. The plate is then developed with the addition of Europium labeled antibody for a final volume of 20 μL and is then incubated for 30 minutes in darkness. Plates are read in a Pherastar plate reader. Data is analyzed in GraphPad PRISM.
(§3) The results of these assays are shown in Table 1, below, wherein “No.” designates compound number (FIG. 1); “A” represents a value of ≤100 nM; “B” a value of >100 nM and ≤1 μM; “C” a value of >1 μM and ≤10 μM; “D” a value of >10 μM; “ND” is not determined. The ratio of Mer to FLT3 is calculated as follows: FLT3 IC50/Mer IC50. “+” represents a ratio of >2.0 and <10; “++” represents a ratio of between 10 and 100; and “+++” represents a ratio of >100.

[2] = biological target: T2, AXL (Homo sapiens, UniProt P30530); assay: TR-FRET kinase activity assay, AXL; conditions: ATP at Km, 60 minutes
T2 sequence (P30530 26-894): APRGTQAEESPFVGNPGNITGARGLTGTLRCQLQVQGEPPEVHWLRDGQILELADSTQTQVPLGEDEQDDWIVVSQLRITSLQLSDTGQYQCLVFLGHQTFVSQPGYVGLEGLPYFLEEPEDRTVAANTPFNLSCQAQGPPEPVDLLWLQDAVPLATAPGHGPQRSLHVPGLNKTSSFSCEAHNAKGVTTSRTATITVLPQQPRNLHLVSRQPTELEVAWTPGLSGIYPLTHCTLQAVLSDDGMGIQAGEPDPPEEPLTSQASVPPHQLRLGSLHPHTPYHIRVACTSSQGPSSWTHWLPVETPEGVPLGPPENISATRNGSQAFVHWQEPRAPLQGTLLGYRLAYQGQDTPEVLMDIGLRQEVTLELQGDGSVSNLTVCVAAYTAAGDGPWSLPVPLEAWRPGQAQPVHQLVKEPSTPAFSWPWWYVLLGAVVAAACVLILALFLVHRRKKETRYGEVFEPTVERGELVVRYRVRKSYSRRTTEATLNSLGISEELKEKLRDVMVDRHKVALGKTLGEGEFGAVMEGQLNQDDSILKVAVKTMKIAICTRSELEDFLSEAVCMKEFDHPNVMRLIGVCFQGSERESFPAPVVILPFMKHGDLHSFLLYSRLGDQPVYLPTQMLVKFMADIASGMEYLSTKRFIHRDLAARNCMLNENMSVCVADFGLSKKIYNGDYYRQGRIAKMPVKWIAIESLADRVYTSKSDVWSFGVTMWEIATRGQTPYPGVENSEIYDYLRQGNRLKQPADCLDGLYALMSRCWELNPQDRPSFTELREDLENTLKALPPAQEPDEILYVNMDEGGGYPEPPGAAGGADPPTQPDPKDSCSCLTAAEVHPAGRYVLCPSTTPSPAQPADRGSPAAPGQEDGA
Protocol: as §1, §2, §3

[3] = biological target: T3, MERTK (Homo sapiens, UniProt Q12866); assay: TR-FRET kinase activity assay, MERTK; conditions: for IC50: TR-FRET activity assay, ATP at Km, 60 minutes, read-out: Mer IC50; for FLT3/Mer ratio (FLT3 IC50/Mer IC50): ratio of Mer to FLT3: FLT3 IC50/Mer IC50
T3 sequence (Q12866 21-999): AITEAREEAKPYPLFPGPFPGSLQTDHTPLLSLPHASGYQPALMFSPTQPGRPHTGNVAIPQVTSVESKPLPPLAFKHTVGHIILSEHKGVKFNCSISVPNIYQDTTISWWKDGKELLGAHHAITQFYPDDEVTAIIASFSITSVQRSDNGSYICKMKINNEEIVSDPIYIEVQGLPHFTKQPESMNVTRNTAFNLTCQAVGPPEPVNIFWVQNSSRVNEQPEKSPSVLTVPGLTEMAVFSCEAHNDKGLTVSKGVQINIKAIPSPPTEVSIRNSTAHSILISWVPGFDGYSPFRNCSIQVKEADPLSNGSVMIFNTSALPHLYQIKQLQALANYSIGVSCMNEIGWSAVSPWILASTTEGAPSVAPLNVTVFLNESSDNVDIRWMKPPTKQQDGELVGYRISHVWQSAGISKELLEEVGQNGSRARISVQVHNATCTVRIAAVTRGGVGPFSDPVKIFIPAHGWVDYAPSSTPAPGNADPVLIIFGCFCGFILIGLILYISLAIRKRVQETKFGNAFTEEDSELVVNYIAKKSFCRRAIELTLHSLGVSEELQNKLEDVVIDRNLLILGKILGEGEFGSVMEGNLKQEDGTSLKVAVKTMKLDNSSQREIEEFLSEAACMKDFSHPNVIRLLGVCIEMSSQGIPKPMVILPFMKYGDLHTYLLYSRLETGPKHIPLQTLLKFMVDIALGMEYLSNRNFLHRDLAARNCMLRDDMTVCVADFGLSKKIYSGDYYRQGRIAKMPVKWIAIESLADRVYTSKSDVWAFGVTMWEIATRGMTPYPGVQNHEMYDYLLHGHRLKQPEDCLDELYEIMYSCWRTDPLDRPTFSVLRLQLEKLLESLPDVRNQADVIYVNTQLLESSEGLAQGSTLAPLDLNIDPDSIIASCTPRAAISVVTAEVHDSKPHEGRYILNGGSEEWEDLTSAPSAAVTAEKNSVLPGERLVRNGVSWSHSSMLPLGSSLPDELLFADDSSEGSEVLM
Protocol: as §1, §2, §3

In the case of `CCCCCC(C)Nc1ncc2c(Nc3ccc(F)cc3)cc(C3CCC(O)CC3)n2n1` [Compound 106, (1S,4r)-4-(5-((4-fluorophenyl)amino)-2-((S)-heptan-2-ylamino)pyrrolo[2,1-f][1,2,4]triazin-7-yl)cyclohexanol hydrochloride], the IC50 [1] is reported as greater than 10000 nM, the IC50 [2] is reported as greater than 10000 nM and the IC50 [3] is reported as 100 to 1000 nM. The “FLT3/Mer ratio (FLT3 IC50/Mer IC50)” value [3] was “++ (“++” represents a ratio of between 10 and 100)”.
With `CCCCC[C@H](C)Nc1ncc2c(C(=O)Nc3ccc(F)cc3)cc(C3CCC(O)CC3)n2n1` (stereo partly drawn) [Compound 111, N-(4-fluorophenyl)-7-(4-hydroxycyclohexyl)-2-[[(1S)-1-methylhexyl]amino]pyrrolo[2,1-f][1,2,4]triazine-5-carboxamide] the IC50 [1] was 1000 to 10000 nM, the IC50 [2] was greater than 10000 nM and the IC50 [3] was 1000 to 10000 nM. The “FLT3/Mer ratio (FLT3 IC50/Mer IC50)” value [3] was “+ (“+” represents a ratio of >2.0 and <10)”.
In the case of `CCCCNc1ncc2c(-c3ccc(S(=O)(=O)N4CCOCC4)cc3)cc([C@H]3CC[C@H](O)CC3)n2n1` [Compound 101], the IC50 [1] is reported as no more than 100 nM, the IC50 [2] is reported as no more than 100 nM and the IC50 [3] is reported as no more than 100 nM. The “FLT3/Mer ratio (FLT3 IC50/Mer IC50)” value [3] was “+ (“+” represents a ratio of >2.0 and <10)”.
`COC[C@H](C)Nc1ncc2c(-c3cnn(C[C@@H]4CC(=O)N(C)C4)c3)cc([C@H]3CC[C@H](O)CC3)n2n1` [Compound 476] showed an IC50 [1] of 100 to 1000 nM and an IC50 [3] of no more than 100 nM.
